Measured values as given in PubChem BioAssay AID2823 (Broad Institute, 2010).
Activity calls are given as the source filed them. No rule for the calls is given here.

Molecular target: RanGTP-importin-beta complex (human Ran / KPNB1)
Assay: disruptors of RanGTP/KPNB1 binding – biochemical, FRET, CFP/YFP, cell-free homogeneous, confirmation (AID 2823)
Settings: CFP-Ran/YFP-importin-beta FRET ratio

SMILES	IC50
COC(=O)C1=CN(Cc2ccc(OC)c(OC)c2)C=C(C(=O)OC)C1c1ccccc1F	9.77 µM
Oc1ccc(Br)cc1/C=N/n1c(-c2ccccc2)n[nH]c1=S	> 50 µM (inactive)
CC1CN(Cc2cc(=O)oc3cc(O)ccc23)CC(C)O1 (configuration not stated)	19 µM
COc1ccccc1N1CCN(C(=O)/C=C/c2ccc(C)cc2)CC1	> 50 µM (inactive)
CCOC(=O)c1c(N)n(CCCOC(=O)c2ccco2)c2nc3ccccc3nc12	23.7 µM
Cn1c(N/N=C/c2cc3ccccc3nc2Cl)nc2ccccc21	> 120 µM (inactive)
COc1ccc(CCNc2oc(-c3ccco3)nc2C#N)cc1	> 50 µM (inactive)
Cc1ccc(S(=O)(=O)NCCN(CCNS(=O)(=O)c2ccc(C)cc2)S(C)(=O)=O)cc1	> 50 µM (inactive)
COc1ccc(C(=O)C[n+]2ccc(N)c(C)c2C)cc1	> 50 µM (inactive)
CCOC(=O)/C(C#N)=C\c1ccc(N2CCN(C)CC2)cc1	15 µM
CCN1CCN(Cc2c(O)c(Cl)cc3c(C)cc(=O)oc23)CC1	33.4 µM
COc1ccc(-c2cc(C(F)(F)F)n3nc(N)nc3n2)cc1	14.6 µM
Cc1cc2c(c(=O)n1CC1CCCO1)C(c1ccco1)C(C#N)=C(N)O2 (configuration not stated)	20.9 µM
CN1CCCN(Cc2cccc3ccccc23)CC1	> 50 µM (inactive)
Cn1nnnc1SCC(=O)Nc1nn(-c2ccccc2)nc1C(N)=O	> 50 µM (inactive)
CC1=Nc2ccccc2/C1=C\c1sc(Nc2ccc(C)cc2)nc1O	> 50 µM (inactive)
CCOCCCNC(=S)NCCCNc1nc2cc3c(cc2cc1C#N)OCO3	9.41 µM
O=c1cc(N2CCc3ccccc3C2)[nH]c(=O)n1C1CCCCC1	> 50 µM (inactive)
Cc1cc(CNC(=O)COc2ccc(F)cc2)c2ccccc2n1	> 50 µM (inactive)
CNC(=O)c1c(C)[nH]c(=S)c(C#N)c1-c1ccco1	> 50 µM (inactive)
COc1cccc(NC(=O)CSc2ncc(S(=O)(=O)c3ccccc3)c(=O)[nH]2)c1	> 50 µM (inactive)
CC1CCCCN1Cc1c(O)ccc2c(=O)c(-c3nc4ccccc4s3)coc12 (configuration not stated)	< 0.38 µM
CCOc1ccc(-n2c(N)c(C(=O)NCc3ccco3)c3nc4ccccc4nc32)cc1	25 µM
Cn1c2ccccc2c(=O)c2ccc(F)cc21	12.6 µM
O=C(Cn1nnc2ccccc21)N/N=C\c1cccs1	> 50 µM (inactive)
Cc1ccc(-n2c(O)c(/C=N/N3CCCCCC3)c(=O)[nH]c2=O)cc1C	> 50 µM (inactive)

SMILES	IC50
Cc1ccc(-c2nnn(CC(=O)N(c3ccccc3)C(C(=O)NCC3CCCO3)c3ccc(Cl)cc3)n2)cc1 (configuration not stated)	> 50 µM (inactive)
COc1ccccc1CNC(=O)COC(=O)Cc1ccc(Cl)cc1	> 50 µM (inactive)
CC(=O)N1c2ccc(S(=O)(=O)N3CCC(C(=O)Nc4cccc(Cl)c4)CC3)cc2CC1C (configuration not stated)	> 50 µM (inactive)
C/C(=N\OCC(=O)OCC(=O)NC(=O)c1ccccc1)c1ccc2c(c1)OCO2	> 50 µM (inactive)
CCCn1nc(NC(=O)CC(C)C)c2cc3cccc(C)c3nc21	5.82 µM
O=C(NNC(=S)NC(=O)c1ccccc1[N+](=O)[O-])c1ccccc1O	> 50 µM (inactive)
CCCn1c(=N)c(C(=O)NCc2ccc3c(c2)OCO3)cc2c(=O)n3cccc(C)c3nc21	10.2 µM
Cc1ccc(N2NC(=O)/C(=C\c3cc4c(cc3[N+](=O)[O-])OCO4)C2=O)cc1C	> 50 µM (inactive)
CC(C)Cc1nnc(NC(=O)Cc2cccs2)s1	> 50 µM (inactive)
O=C(O)c1cn(Cc2cccnc2)c(=O)c2ccccc12	> 50 µM (inactive)
N#C/C(=C\c1ccc(-c2ccc(F)cc2)o1)C(=O)Nc1nc(-c2cccs2)cs1	> 50 µM (inactive)
Cc1c(NC2=CC(=O)CCC2)c(=O)n(-c2ccccc2)n1C	> 50 µM (inactive)
CCOc1ccccc1NC1=CC(=O)CC(c2ccccc2)C1 (configuration not stated)	> 50 µM (inactive)
O=C(CN1CCOCC1)NNc1c2ccccc2nc2ccccc12	> 50 µM (inactive)
O=C(C1CCCCC1)N1CC(=O)N2CCc3ccccc3C2C1 (configuration not stated)	> 50 µM (inactive)
COC(=O)C1=C(C)NC(C)=C(C(=O)OC)C1C(=O)OC(C)C(=O)c1ccccc1 (configuration not stated)	> 50 µM (inactive)
COc1ccc(C2NC(=S)NC3=C2CCCC3=C2SCCS2)cc1 (configuration not stated)	> 50 µM (inactive)
Oc1nc(Nc2ccccc2)sc1/C=C1\C=Nc2ccccc21	> 50 µM (inactive)
O=C(NNc1c2ccccc2nc2ccccc12)C12CC3CC(CC(C3)C1)C2	> 50 µM (inactive)
COc1ccc(-n2c(N)c(C(=O)NCc3ccco3)c3nc4ccccc4nc32)c(OC)c1	21.9 µM
CNC(=S)Nc1ccc(C(N)=O)cc1	> 50 µM (inactive)
OCCNCc1cccc(OCc2ccccc2Cl)c1	> 50 µM (inactive)
COc1ccc(C(=O)N/N=C/c2c(CO)cnc(C)c2O)cc1	3.13 µM
CCOC(=O)c1c(NC(=O)C2CCCCC2)sc2c1CCN(C(C)C)C2	> 50 µM (inactive)
N#C/C(=C/c1cn(CC(=O)O)c2ccccc12)C(=O)NCc1ccccc1	> 50 µM (inactive)
CSc1nsc2nc(=O)c(/C=C3\C=Nc4ccccc43)c(N)n12	22.6 µM
